The text below walks through data of patent publication US9969742B2, “Imidazotriazinone compounds” (Ironwood Pharmaceuticals, Inc., priority 2012, dated 2018).

The target of the assay is T1, PDE9A2 (Homo sapiens, UniProt O76083).
T1 construct: purchased Reaction Biology Corporation, Malvern, Pa
As to the kind of experiment: Phosphodiesterase enzyme screening assay, PDE9A2. In kind it is biochemical. As to conditions: read-out: Band (PDE9A2 IC50). The text has this:
Compounds of the invention were screened against PDE1A, PDE1B, PDE2A, PDE3A, PDE3B, PDE4A1A, PDE4B1, PDE4D3, PDE5A1, PDE6C, PDE7A, PDE8A1, PDE9A2, PDE10A2 AND PDE11A isoforms of the phosphodiesterase enzyme to determine activity and overall selectivity through comparative analysis. […] Where 8-methoxy-IBMX and Zaprinast were used as reference inhibitors.
The phosphodiesterase enzyme isoforms were obtained from a commercial retailer (Reaction Biology Corporation, Malvern, Pa.) for use in the instant screening assay.
The analysis was completed using the Caliper LabChip 3000 and a 12-sipper LabChip. LabChip assays are separations-based, meaning that the product and substrate are electrophoretically separated, thereby minimizing interferences and yielding the highest data quality available on any screening platform. […] High Z′ values, few false positives, few false negatives and analytical quality reproducibility are the reasons cited for the increasing reliance on the LabChip assays.
The off-chip incubation mobility-shift phosphodiesterase assay uses a microfluidic chip to measure the conversion of a fluorescent cyclic AMP substrate to a 5′-AMP product, or a cyclic GMP substrate to a 5′-GMP product. The reaction mixture, from a microtiter plate well, is introduced through a capillary sipper onto the chip, where the fluorescent substrate and product are separated by electrophoresis and detected via laser-induced fluorescence. […] The precision of microfluidics allows researchers to detect subtle interactions between drug candidates and therapeutic targets.
Reactions were carried out in 100 mM HEPES (pH 7.5), 5 mM MgCl2, 1 mM DTT, 0.003% Brij, 4.0 μM cGMP substrate. The reaction was started by addition of cGMP or cAMP and incubated for 1 hour at R.T. The reaction was terminated by the addition of stop buffer containing 100 mM HEPES (pH 7.5), 15 mM EDTA, 0.015% Brij-35, 5% DMSO. Cyclic AMP/GMP substrate and 5′-AMP/5′-GMP product were separated by charge using electrophoretic mobility shift. Product formed was compared to control wells to determine inhibition or enhancement of enzyme activity.
Data points were averages of quadruplicate wells and error bars represented the SEM for each point.

Setting [1] is: Table 1, 10 concentrations, 4.0 μM cGMP substrate, 1 hour at R.T.
Where [2] appears, read: 4.0 μM cGMP substrate, 1 hour at R.T.

Read-outs that look alike come from different tables or passages of the source. Where only a bound is given, the exact number is not on record here.

T1 sequence (O76083 1-533 isoform O76083-2): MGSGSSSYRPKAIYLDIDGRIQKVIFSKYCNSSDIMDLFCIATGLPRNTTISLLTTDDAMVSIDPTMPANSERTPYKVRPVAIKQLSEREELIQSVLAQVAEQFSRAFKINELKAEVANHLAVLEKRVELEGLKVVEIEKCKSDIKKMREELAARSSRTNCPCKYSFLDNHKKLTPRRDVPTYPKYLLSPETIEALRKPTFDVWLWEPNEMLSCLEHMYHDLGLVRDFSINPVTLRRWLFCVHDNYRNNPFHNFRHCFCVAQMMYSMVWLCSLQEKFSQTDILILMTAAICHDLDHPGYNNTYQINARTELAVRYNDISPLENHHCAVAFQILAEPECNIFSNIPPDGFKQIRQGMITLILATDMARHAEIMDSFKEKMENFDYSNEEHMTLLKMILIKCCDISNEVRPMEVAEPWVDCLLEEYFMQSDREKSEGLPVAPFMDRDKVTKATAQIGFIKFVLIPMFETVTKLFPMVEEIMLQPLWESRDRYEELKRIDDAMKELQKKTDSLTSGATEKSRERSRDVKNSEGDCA

For `CC1CN(S(=O)(=O)c2cccnc2)CC1c1nn2c(C3CCOCC3)ncc2c(=O)[nH]1` (single isomer, unassigned; (+)) [(+)-2-((3,4-trans)-4-methyl-1-(pyridin-3-ylsulfonyl)pyrrolidin-3-yl)-7-(tetrahydro-2H-pyran-4-yl)imidazo[5,1-f][1,2,4]triazin-4(3H)-one], under setting [1], the IC50 is less than 1000 nM.

In the case of `CC1CN(S(=O)(=O)c2ccccc2C#N)CC1c1nn2c(C3CCOCC3)ncc2c(=O)[nH]1` (single isomer, unassigned; (+)) [(+)-2-(((3,4-trans)-3-methyl-4-(4-oxo-7-(tetrahydro-2H-pyran-4-yl)-3,4-dihydroimidazo[5,1-f][1,2,4]triazin-2-yl)pyrrolidin-1-yl)sulfonyl)benzonitrile], the IC50 under setting [1] lay within 1000 to 10000 nM.

Take `CC1CN(S(=O)(=O)c2ccc(C#N)cc2)CC1c1nn2c(C3CCOCC3)ncc2c(=O)[nH]1` (single isomer, unassigned; (+)) [(+)-4-(((3,4-trans)-3-methyl-4-(4-oxo-7-(tetrahydro-2H-pyran-4-yl)-3,4-dihydroimidazo[5,1-f][1,2,4]triazin-2-yl)pyrrolidin-1-yl)sulfonyl)benzonitrile]: the IC50 under setting [1] was greater than 10000 nM. Consider `CC1CN(Cc2ccccc2)CC1c1nn2c(C3CCN(C(=O)OC(C)(C)C)CC3)ncc2c(=O)[nH]1` (single isomer, unassigned; (+)) [(+)-tert-butyl 4-(2-((3,4-trans)-1-benzyl-4-methylpyrrolidin-3-yl)-4-oxo-3,4-dihydroimidazo[1,5-f][1,2,4]triazin-7-yl)piperidine-1-carboxylate], for which the IC50 under setting [1] is 1000 to 10000 nM. For the compound `CC1CN(C(=O)c2ccccc2)CC1c1nn2c(C3CCOCC3)ncc2c(=O)[nH]1` (single isomer, unassigned; (+)) [(+)-2-((3,4-trans)-1-benzoyl-4-methylpyrrolidin-3-yl)-7-(tetrahydro-2H-pyran-4-yl)imidazo[5,1-f][1,2,4]triazin-4(3H)-one], the IC50 under setting [1] lay in the range of 1000 to 10000 nM.

Take “(+)-2-((3,4-trans)-1-benzyl-4-methylpyrrolidin-3-yl)-7-(piperidin-4-yl)imidazo[1,5-f][1,2,4]triazin-4(3H)-one”: the IC50 under setting [1] lay in the range of 1000 to 10000 nM.

For the compound `CC1CN(CC2CCCC2)CC1c1nn2c(C3CCOCC3)ncc2c(=O)[nH]1` (single isomer, unassigned; (+)) [(+)-2-((3,4-trans)-1-(cyclopentylmethyl)-4-methylpyrrolidin-3-yl)-7-(tetrahydro-2H-pyran-4-yl)imidazo[5,1-f][1,2,4]triazin-4(3H)-one], the half-maximal inhibitory concentration (IC50) is less than 1000 nM. For the compound `CCS(=O)(=O)N1CC(C)C(c2nn3c(C4CCOCC4)ncc3c(=O)[nH]2)C1` (single isomer, unassigned; (-)) [(−)-2-((3,4-trans)-1-(ethylsulfonyl)-4-methylpyrrolidin-3-yl)-7-(tetrahydro-2H-pyran-4-yl)imidazo[5,1-f][1,2,4]triazin-4(3H)-one], the IC50 under setting [1] was less than 1000 nM. For `CC1CN(Cc2nc3ccccn3n2)CC1c1nn2c(-c3ccccc3C(F)(F)F)ncc2c(=O)[nH]1` (single isomer, unassigned; (+)) [(+)-2-((3,4-trans)-1-([1,2,4]triazolo[1,5-a]pyridin-2-ylmethyl)-4-methylpyrrolidin-3-yl)-7-(2-(trifluoromethyl)phenyl)imidazo[5,1-f][1,2,4]triazin-4(3H)-one], the IC50 under setting [2] is less than 1000 nM. In the case of `CC1CN(CC2CC2)CC1c1nn2c(C3CCOCC3)ncc2c(=O)[nH]1` (single isomer, unassigned; (+)) [(+)-2-((3,4-trans)-1-(cyclopropylmethyl)-4-methylpyrrolidin-3-yl)-7-(tetrahydro-2H-pyran-4-yl)imidazo[5,1-f][1,2,4]triazin-4(3H)-one], the IC50 lay within 1000 to 10000 nM. On to `CC1CN(Cc2ccccc2)CC1c1nn2c(C3CCOC3)ncc2c(=O)[nH]1` (single isomer, unassigned; (-)) [(−)-2-(1-(3,4-trans)-benzyl-4-methylpyrrolidin-3-yl)-7-(tetrahydrofuran-3-yl)imidazo[5,1-f][1,2,4]triazin-4(3H)-one], for which, under setting [1], the IC50 was in the range of 1000 to 10000 nM. The same measure, in the same setting: to `CCS(=O)(=O)N1CC(C)C(c2nn3c(C4CCOCC4)ncc3c(=O)[nH]2)C1` (single isomer, unassigned; (+)) [(+)-2-((3,4-trans)-1-(ethylsulfonyl)-4-methylpyrrolidin-3-yl)-7-(tetrahydro-2H-pyran-4-yl)imidazo[5,1-f][1,2,4]triazin-4(3H)-one] belongs 1000 to 10000 nM; to `Cc1ccc(F)cc1-c1ncc2c(=O)[nH]c(C3CN(Cc4ccccc4)CC3C)nn12` (single isomer, unassigned; (+)) [(+)-2-((3,4-trans)-1-benzyl-4-methylpyrrolidin-3-yl)-7-(5-fluoro-2-methylphenyl)imidazo[1,5-f][1,2,4]triazin-4(3H)-one], less than 1000 nM; to `CC1CN(Cc2ccccc2C#N)CC1c1nn2c(C3CCOCC3)ncc2c(=O)[nH]1` (single isomer, unassigned; (-)) [(−)-2-(((3,4-trans)-3-methyl-4-(4-oxo-7-(tetrahydro-2H-pyran-4-yl)-3,4-dihydroimidazo[5,1-f][1,2,4]triazin-2-yl)pyrrolidin-1-yl)methyl)benzonitrile], less than 1000 nM. The same measure, in the same setting: the value for `CC1CN(C(=O)c2ccncn2)CC1c1nn2c(C3CCOCC3)ncc2c(=O)[nH]1` (single isomer, unassigned; (-)) [(−)-2-((3,4-trans)-4-methyl-1-(pyrimidine-4-carbonyl)pyrrolidin-3-yl)-7-(tetrahydro-2H-pyran-4-yl)imidazo[5,1-f][1,2,4]triazin-4(3H)-one] was less than 1000 nM. On to `CC1CN(Cc2cn3ccccc3n2)CC1c1nn2c(-c3cccc(F)c3)ncc2c(=O)[nH]1` (single isomer, unassigned; (+)) [(+)-7-(3-fluorophenyl)-2-((3,4-trans)-1-(imidazo[1,2-a]pyridin-2-ylmethyl)-4-methylpyrrolidin-3-yl)imidazo[5,1-f][1,2,4]triazin-4(3H)-one], for which the IC50 was less than 1000 nM. Turning to `Cc1ccc(F)cc1-c1ncc2c(=O)[nH]c(C3CN(Cc4ncccn4)CC3C)nn12` (single isomer, unassigned; (-)) [(−)-7-(5-fluoro-2-methylphenyl)-2-((3,4-trans)-4-methyl-1-(pyrimidin-2-ylmethyl)pyrrolidin-3-yl)imidazo[1,5-f][1,2,4]triazin-4(3H)-one], the IC50 under setting [1] lay within 1000 to 10000 nM. Same read-out and setting: the value for `CC1CN(C(=O)c2ccc(F)cc2)CC1c1nn2c(C3CCOCC3)ncc2c(=O)[nH]1` (single isomer, unassigned; (-)) [(−)-2-((3,4-trans)-1-(4-fluorobenzoyl)-4-methylpyrrolidin-3-yl)-7-(tetrahydro-2H-pyran-4-yl)imidazo[5,1-f][1,2,4]triazin-4(3H)-one] was less than 1000 nM; that for `CC1CN(Cc2ncc3ccccc3n2)CC1c1nn2c(C3CCOCC3)ncc2c(=O)[nH]1` (single isomer, unassigned; (+)) [(+)-2-((3,4-trans)-4-methyl-1-(quinazolin-2-ylmethyl)pyrrolidin-3-yl)-7-(tetrahydro-2H-pyran-4-yl)imidazo[5,1-f][1,2,4]triazin-4(3H)-one] was less than 1000 nM.

Consider `CC1CN(S(=O)(=O)c2ccccc2)CC1c1nn2c(C3CCOCC3)ncc2c(=O)[nH]1` (single isomer, unassigned; (+)) [(+)-2-((3,4-trans)-4-methyl-1-(phenylsulfonyl)pyrrolidin-3-yl)-7-(tetrahydro-2H-pyran-4-yl)imidazo[5,1-f][1,2,4]triazin-4(3H)-one], for which the half-inhibitory concentration (IC50) under setting [1] was less than 1000 nM. On the same count and under the same terms, to `CC1CN(S(=O)(=O)c2cccc(F)c2)CC1c1nn2c(C3CCOCC3)ncc2c(=O)[nH]1` (single isomer, unassigned; (+)) [(+)-2-((3,4-trans)-1-((3-fluorophenyl)sulfonyl)-4-methylpyrrolidin-3-yl)-7-(tetrahydro-2H-pyran-4-yl)imidazo[5,1-f][1,2,4]triazin-4(3H)-one] belongs less than 1000 nM.

On to `Cc1cnccc1-c1ncc2c(=O)[nH]c(C3CN(Cc4nc5ccccn5n4)CC3C)nn12` (single isomer, unassigned; (+)) [(+)-2-((3,4-trans)-1-([1,2,4]triazolo[1,5-a]pyridin-2-ylmethyl)-4-methylpyrrolidin-3-yl)-7-(3-methylpyridin-4-yl)imidazo[5,1-f][1,2,4]triazin-4(3H)-one], for which the IC50 under setting [2] is less than 1000 nM.

With `COc1cccc(CN2CC(C)C(c3nn4c(C5CCOCC5)ncc4c(=O)[nH]3)C2)n1` (single isomer, unassigned; (-)) [(−)-2-((3,4-trans)-1-((6-methoxypyridin-2-yl)methyl)-4-methylpyrrolidin-3-yl)-7-(tetrahydro-2H-pyran-4-yl)imidazo[5,1-f][1,2,4]triazin-4(3H)-one], the IC50 under setting [1] is less than 1000 nM.
